Data on eleven compounds can be found in patent US9216991B2 (Ares Trading S.A., priority 2012, dated 2015).

SMILES strings stand for the structures.

One may read the IC50 as the point on the concentration scale where inhibition reaches its midpoint. Broadly, the melting point is the temperature, or range, at which the solid turns liquid.

The target in one data set is T1, IRAK4 (Homo sapiens, UniProt Q9NWZ3).
T1 construct: His (N); TEV cleavage site (N)
T1 sequence (Q9NWZ3 1-460): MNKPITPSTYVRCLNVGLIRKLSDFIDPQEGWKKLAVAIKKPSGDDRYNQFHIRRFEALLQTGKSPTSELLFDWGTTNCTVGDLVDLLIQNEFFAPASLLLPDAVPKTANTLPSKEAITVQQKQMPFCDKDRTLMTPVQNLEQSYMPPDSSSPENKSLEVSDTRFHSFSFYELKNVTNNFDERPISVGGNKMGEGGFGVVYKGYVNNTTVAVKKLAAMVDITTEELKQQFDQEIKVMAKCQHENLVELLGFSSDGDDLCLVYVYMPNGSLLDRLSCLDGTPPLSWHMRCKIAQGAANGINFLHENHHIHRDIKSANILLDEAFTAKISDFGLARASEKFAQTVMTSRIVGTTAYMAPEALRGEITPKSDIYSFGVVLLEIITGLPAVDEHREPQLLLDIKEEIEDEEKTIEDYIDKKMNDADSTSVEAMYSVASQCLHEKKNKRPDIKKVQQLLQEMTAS
The data set can be described thus: IRAK4 Enzymatic Assay. The format is biochemical. The conditions noted are these: His-TEV-IRAK4 20 ng/well, ATP 2 μM, STK1-biotin peptide 300 nM, 3 hours at 30° C., FlashPlate radioactivity. The method in brief: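 Recombinant His-TEV-tagged IRAK4 (20 ng/well) phosphorylates biotinylated STK1 peptide (300 nM) with 2 μM ATP plus [^33P]ATP, 3 h at 30 °C in pH 7.0 HEPES buffer with MgCl2 and MnCl2; compounds tested 20 μM to 1 nM. Reaction stopped with EDTA; incorporated radioactivity counted on streptavidin FlashPlates.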

`Cn1cc(-c2cccc(-c3ncc(-c4cnn(C5CCCC(S(C)(=N)=O)C5)c4)cn3)c2)cn1` (stereo not shown) [Example 288, imino(methyl)(3-(4-(2-(3-(1-methyl-1H-pyrazol-4-yl)phenyl)pyrimidin-5-yl)-1H-pyrazol-1-yl)cyclohexyl)-λ6-sulfanone]: the melting point fell in the range of 172 to 179.2 °C. In addition, on IRAK4, the IC50 is less than 100 nM.
Taken in the same sequence, the figures for `Cn1cc(-c2cnc(-c3cccc(-c4cnn(C)c4)c3)nc2)cn1` [Example 32, 5-(1-Methyl-1H-pyrazol-4-yl)-2-[3-(1-methyl-1H-pyrazol-4-yl)-phenyl]-pyrimidine] were 199 to 200 °C and 100 to 1000 nM.
Taken in the same sequence, the figures for `Cn1cc(-c2cccc(-c3ncc(-c4cnn([C@@H]5CC[C@@]6(CO)COC[C@@]6(O)C5)c4)cn3)c2)cn1` (single isomer, unassigned) [Example 281] were 191.4 to 199.7 °C and 100 to 1000 nM.
Taken in the same sequence, the figures for `Cn1cc(-c2cccc(-c3ncc(-c4cnn([C@H]5CC[C@H](OCCO)CC5)c4)cn3)c2)cn1` [Example 277, Trans-2-[4-(-4-{2-[3-(1-Methyl-1H-pyrazol-4-yl)-phenyl]-pyrimidin-5-yl}-pyrazol-1-yl)-cyclohexyloxy]-ethanol] were 218.7 to 223.3 °C and less than 100 nM.
`Cn1cc(-c2cccc(-c3ncc(-c4cnn(CC(=O)N5CCCC(O)C5)c4)cn3)c2)cn1` (stereo not shown) [Example 52, 1-(3-Hydroxy-piperidin-1-I)-2-(4-{2-[3-(1-methyl-1H-pyrazol-4-yl)-phenyl]-pyrimidin-5-yl}-pyrazol-1-yl)-ethanone] came in with a melting point of 198 to 200 °C. At IRAK4, the IC50 is 100 to 1000 nM.
Taken in the same sequence, the figures for `Cn1cc(-c2cccc(-c3ncc(-c4cnn([C@H]5CC[C@]6(CC5)CNC(=O)C6)c4)cn3)c2)cn1` [Example 287, cis-8-(4-(2-(3-(1-methyl-1H-pyrazol-4-yl)phenyl)pyrimidin-5-yl)-1H-pyrazol-1-yl)-2-azaspiro[4.5]decan-3-one] were 262 to 265.8 °C and less than 100 nM.
Regarding `Cn1cc(-c2cccc(-c3ncc(-c4cnn(C5CCS(=O)(=O)C5)c4)cn3)c2)cn1` (stereo not shown) [Example 219, 5-[1-(1,1-Dioxo-tetrahydro-1lambda6-thiophen-3-yl)-1H-pyrazol-4-yl]-2-[3-(1-methyl-1H-pyrazol-4-yl)-phenyl]-pyrimidine], the melting point was 247 to 250 °C. The IC50 on IRAK4 was 100 to 1000 nM.
In turn, `Cn1cc(-c2cccc(-c3ncc(-c4cnn(CC(=O)N5CC(O)C5)c4)cn3)c2)cn1` [Example 73, 1-(3-Hydroxy-azetidin-1-yl)-2-(4-{2-[3-(1-methyl-1H-pyrazol-4-yl)-phenyl]-pyrimidin-5-yl}-pyrazol-1-yl)-ethanone] registered a melting point of 177 to 181 °C. Also, the IC50 at IRAK4 is 100 to 1000 nM.
Taken in the same sequence, the figures for `Cn1cc(-c2cccc(-c3ncc(-c4cnn([C@@H]5CCC[C@@H](O)C5)c4)cn3)c2)cn1` (relative stereo) [Example 290, Trans-3-(4-{2-[3-(1-Methyl-1H-pyrazol-4-yl)-phenyl]-pyrimidin-5-yl}-pyrazol-1-yl)-cyclohexanol] were 207.5 to 212 °C and 100 to 1000 nM.
Taken in the same sequence, the figures for `Cn1cc(-c2cccc(-c3ncc(-c4cnn([C@H]5CC[C@@]6(CC5)CNC(=O)C6)c4)cn3)c2)cn1` [Example 286, trans-8-(4-{2-[3-(1-Methyl-1H-pyrazol-4-yl)-phenyl]-pyrimidin-5-yl}-pyrazol-1-yl)-2-aza-spiro[4.5]decan-3-one] were 255 to 258.7 °C and less than 100 nM.
In the same order, the values of `Cn1cc(-c2cccc(-c3ncc(-c4cnn([C@H]5CC[C@]6(CO)COC[C@]6(O)C5)c4)cn3)c2)cn1` (single isomer, unassigned) [Example 280] are 190.1 to 201.7 °C and less than 100 nM.
